Experimental data from BindingDB's records for doi:10.1016/S1074-5521(02)00184-9 (The Scripps Research Institute, 2002).
pIC50, pKi: −log10 of the molar value.

Target: HIV-1 protease (Human immunodeficiency virus, UniProt O90785)
Test: Inhibition Assay
Details: pH 5.6; 37 °C
Description: Inhibition of HIV-protease activity for selected acids at P3-P3' positions.

Chain of HIV-1 protease (O90785 whole entry): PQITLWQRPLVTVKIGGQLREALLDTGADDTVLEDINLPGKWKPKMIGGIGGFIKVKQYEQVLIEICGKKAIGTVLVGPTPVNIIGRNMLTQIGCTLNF

Structure (SMILES) | pIC50 | pKi
CC(C)[C@H](NC(=O)c1cc(O)c2ccccc2n1)C(=O)N[C@@H](Cc1ccccc1)[C@@H](O)[C@H](O)[C@H](Cc1ccccc1)NC(=O)[C@@H](NC(=O)c1cc(O)c2ccccc2n1)C(C)C [P3-P3' Entry 4] | 7.72 | –
CC(C)[C@H](NC(=O)c1ccc(-c2ccc([N+](=O)[O-])cc2)o1)C(=O)N[C@@H](Cc1ccccc1)[C@@H](O)[C@H](O)[C@H](Cc1ccccc1)NC(=O)[C@@H](NC(=O)c1ccc(-c2ccc([N+](=O)[O-])cc2)o1)C(C)C [P3-P3' Entry 8] | 8.22 | 8.70
CC(C)[C@H](NC(=O)c1ccc2ccccc2n1)C(=O)N[C@@H](Cc1ccccc1)[C@@H](O)[C@H](O)[C@H](Cc1ccccc1)NC(=O)[C@@H](NC(=O)c1ccc2ccccc2n1)C(C)C [P3-P3' Entry 6] | 8.00 | –
CC(C)[C@H](NC(=O)c1ccc([N+](=O)[O-])o1)C(=O)N[C@@H](Cc1ccccc1)[C@@H](O)[C@H](O)[C@H](Cc1ccccc1)NC(=O)[C@@H](NC(=O)c1ccc([N+](=O)[O-])o1)C(C)C [P3-P3' Entry 9] | 7.70 | –
CC(C)[C@H](NC(=O)c1ccc(-c2c(Cl)cc([N+](=O)[O-])cc2Cl)o1)C(=O)N[C@@H](Cc1ccccc1)[C@@H](O)[C@H](O)[C@H](Cc1ccccc1)NC(=O)[C@@H](NC(=O)c1ccc(-c2c(Cl)cc([N+](=O)[O-])cc2Cl)o1)C(C)C [P3-P3' Entry 10] | < 7.30 | –
CC(C)[C@H](NC(=O)OCc1ccccc1)C(=O)N[C@@H](Cc1ccccc1)[C@@H](O)[C@H](O)[C@H](Cc1ccccc1)NC(=O)[C@@H](NC(=O)OCc1ccccc1)C(C)C | – | 8.82
CC(C)[C@H](NC(=O)CCCc1c[nH]c2ccccc12)C(=O)N[C@@H](Cc1ccccc1)[C@@H](O)[C@H](O)[C@H](Cc1ccccc1)NC(=O)[C@@H](NC(=O)CCCc1c[nH]c2ccccc12)C(C)C [P3-P3' Entry 3] | 7.85 | –
CCC(C)[C@H](NC(=O)c1ccc2cccc(O)c2n1)C(=O)N[C@@H](Cc1ccccc1)[C@@H](O)[C@H](O)[C@H](Cc1ccccc1)NC(=O)[C@@H](NC(=O)c1ccc2cccc(O)c2n1)C(C)C (stereo partly drawn) [P3-P3' Entry 5] | < 7.30 | –
CC(C)[C@H](NC(=O)CCc1c[nH]c2ccccc12)C(=O)N[C@@H](Cc1ccccc1)[C@@H](O)[C@H](O)[C@H](Cc1ccccc1)NC(=O)[C@@H](NC(=O)CCc1c[nH]c2ccccc12)C(C)C [P3-P3' Entry 2] | 8.00 | –
CC(C)[C@H](NC(=O)Cc1c[nH]c2ccccc12)C(=O)N[C@@H](Cc1ccccc1)[C@@H](O)[C@H](O)[C@H](Cc1ccccc1)NC(=O)[C@@H](NC(=O)Cc1c[nH]c2ccccc12)C(C)C [P3-P3' Entry 1] | 7.77 | –
CC(C)[C@H](NC(=O)COc1ccc2ccccc2c1)C(=O)N[C@@H](Cc1ccccc1)[C@@H](O)[C@H](O)[C@H](Cc1ccccc1)NC(=O)[C@@H](NC(=O)COc1ccc2ccccc2c1)C(C)C [P3-P3' Entry 7] | 8.00 | –

Results, then the compound that gave them:

pIC50 | pKi | Structure (SMILES)
8.00 | – | CC(C)[C@H](NC(=O)c1ccc(-c2ccc([N+](=O)[O-])cc2[N+](=O)[O-])o1)C(=O)N[C@@H](Cc1ccccc1)[C@@H](O)[C@H](O)[C@H](Cc1ccccc1)NC(=O)[C@@H](NC(=O)c1ccc(-c2ccc([N+](=O)[O-])cc2[N+](=O)[O-])o1)C(C)C [P3-P3' Entry 12]
< 7.30 | – | CC(C)[C@H](NC(=O)c1ccc(CN2CCCCC2)o1)C(=O)N[C@@H](Cc1ccccc1)[C@@H](O)[C@H](O)[C@H](Cc1ccccc1)NC(=O)[C@@H](NC(=O)c1ccc(CN2CCCCC2)o1)C(C)C [P3-P3' Entry 14]
8.00 | – | CC(C)[C@H](NC(=O)c1ccc(-c2ccc(Cl)cc2)o1)C(=O)N[C@@H](Cc1ccccc1)[C@@H](O)[C@H](O)[C@H](Cc1ccccc1)NC(=O)[C@@H](NC(=O)c1ccc(-c2ccc(Cl)cc2)o1)C(C)C [P3-P3' Entry 16]
< 7.30 | – | CC(C)[C@H](NC(=O)c1ccc(CN2CCOCC2)o1)C(=O)N[C@@H](Cc1ccccc1)[C@@H](O)[C@H](O)[C@H](Cc1ccccc1)NC(=O)[C@@H](NC(=O)c1ccc(CN2CCOCC2)o1)C(C)C [P3-P3' Entry 15]
< 7.30 | – | CC(C)[C@H](NC(=O)c1ccc(-c2cc(C(F)(F)F)ccc2Cl)o1)C(=O)N[C@@H](Cc1ccccc1)[C@@H](O)[C@H](O)[C@H](Cc1ccccc1)NC(=O)[C@@H](NC(=O)c1ccc(-c2cc(C(F)(F)F)ccc2Cl)o1)C(C)C [P3-P3' Entry 11]
8.00 | – | CC(C)[C@H](NC(=O)c1ccc(C(=O)c2ccccc2)o1)C(=O)N[C@@H](Cc1ccccc1)[C@@H](O)[C@H](O)[C@H](Cc1ccccc1)NC(=O)[C@@H](NC(=O)c1ccc(C(=O)c2ccccc2)o1)C(C)C [P3-P3' Entry 13]
